Measurements published in patent US20050100507A1, “Chemotactic peptide antagonists for imaging sites of inflammation” (Bracco Imaging S.p.A., priority 1998, published 2005).
Square brackets hold non-standard residues; d marks the D form. Ends that are not written are not given here. * marks the point of attachment. Acetyl(9-fluorenyl) = O=C(CC1c2ccccc2-c2ccccc21)*; N,N‑diphenylcarbamoyl = O=C(N(c1ccccc1)c1ccccc1)*; Adamantane1carbonyl = O=C(C12CC3CC(CC(C3)C1)C2)*; N,N‑diethylcarbamoyl = CCN(CC)C(=O)*; Cyclopropanecarbonyl = O=C(C1CC1)*; Nle = CCCC[C@H](N)C(=O)O

What was measured:
elicited rat PMNs [1] = format: cell-based; settings: MPO release, PMNs without fMLF, ± S.E.M.; for % Control (1 uM): test peptide 1 uM; for % Control (10 uM): test peptide 10 uM
Method: (§1) Animals were sacrificed via administration of CO2 4 hours following peritoneal injection of 10 mL of 0.5% (w/v) oyster glycogen warmed to room temperature. Leukocyte harvesting via peritoneal lavage was performed using 20 mL of Hanks' buffered salt solution (HBSS−) containing 10 mM ethylene-diaminetetra-acetic acid (EDTA) disodium salt followed by a second lavage with 10 mL of HBSS− containing 10 mM EDTA. Exactly the same technique was performed on all rats with washes of the peritoneum prior to aspiration of samples approximating 1 minute. The volume of fluid recovered from each rat was approximately 20-25 mL and bloody lavages visibly containing significant red blood cell (RBC) populations were discarded.
(§2) Neutrophils isolated by peritoneal lavage were washed twice with 1 mL of HBSS− (without calcium chloride, magnesium chloride and magnesium sulfate) and centrifuged for ten minutes at 2000 rpms following each wash. PMNs utilized in functional assays were centrifuged at 25° C. while those used in binding assays were centrifuged at 4° C. to prevent internalization. A cold H2O RBC lysis was then performed with the addition of 9 mL of sterile ice-cold H2O and 1 mL of phosphate buffered saline (PBS) solution containing 0.1 M phosphate buffer, 0.027 M KCl and 1.37 M NaCl following resuspension of the sample in 1 mL of HBSS. Centrifugation was subsequently performed for ten minutes at 1600 rpms. White blood cell (WBC) differential stain containing saline, 2% acidic acid and phenol violet dye was used to identify the neutrophil population and trypan blue exclusion was used to determine viability of cells. As previously reported, 98% of leukocytes were neutrophils and approximately 95% of the cells were viable (Chen et al., 1996).
(§3) 0.5×10^6 PMNs per sample were incubated in 96-well Millipore Multiscreen 0.65 um filter plates. In a final volume of 150 uL, 50 uL of the respective fMLP analogues (10 uM to 1 pM) and/or fMLP (10 uM to 1.0 uM) were incubated with isolated PMNs pre-treated with cytochalasin B (5 ug/mL) for 10 minutes. Following a 30 minute incubation period at room temperature, the supernatant was collected into a 96-well polypropylene plate with the Millipore vacuum apparatus. A stock solution of o-phenylenediamine (OPD) was made to contain 2.5 mg of OPD, 5 ul of H2O2 and 10 mL HBSS+ and supernatant samples were subsequently incubated with 50 uL of OPD solution. The reaction was stopped after 2 minutes by the addition of 2.5M H2SO4. Photometric analysis was performed with the Thermomax Microplate Reader with optical density (O.D.490) values being read at a wavelength of 490 nm. Absorbance was measured against a blank containing 150 μl of HBSS+ which was subtracted from wells containing cells and the various treatments. MPO release was expressed as a percentage of the total release of myeloperoxidase in control wells containing cells ±fMLF.
(§4) The curve-fitting program Prism was used to calculate KD, IC50 and EC50 values by fitting data to the one-site binding equations A, B and C respectively. • A. Equation: One site binding (hyperbola) Y=Bmax*X/(KD+X) • B. Equation: One site competition Y=Bottom+(Top−Bottom)/(1+10^(X−LogIC50)); with x=log (concentration) and y=binding • C. […] Additionally, Graph fit software was used to perform Scatchard analysis of saturation binding data and to confirm KD and Bmax values generated by Prism software.

elicited rat PMNs [2] = assay: Myeloperoxidase release in elicited rat PMNs co-stimulated with 0.1 uM fMLF; format: cell-based; settings: for antagonist function on MPO release in fMLF stimulated rat PMNs: 0.1 uM fMLF, inhibition at 10 uM, result in words; for % Control MPO release (1 uM capping group + 0.1 uM fMLF): 1 uM test peptide + 0.1 uM fMLF; for % Control MPO release (1 uM capping group + 0.1 uM fMLF) / % Control MPO Release (10 uM capping group + 0.1 uM fMLF): ± S.E.M.; for % Control MPO Release (10 uM capping group + 0.1 uM fMLF): 10 uM test peptide + 0.1 uM fMLF
Method: as §1, §2
as §3, with “In a final volume of 150 uL, 50 uL of the respective fMLP analogues (10 uM to 1 pM) and/or fMLP (10 uM to 1.0 uM) were incubated with isolated PMNs pre-treated with cytochalasin B (5 ug/mL) for 10 minutes.” left out

Rat FPR = target: T1, Rat FPR (Rattus norvegicus, UniProt D4A7Q2); assay: Competition binding with 6 nM 3H-fMLF to elicited rat PMNs; settings: for competition binding of N-terminal modified NleLFK peptides (FIG. 8): peptides at 1 uM and 10 uM
T1 construct: endogenous in cells; host or cells: glycogen-elicited peritoneal neutrophils (PMNs) of Sprague-Dawley rats
T1 sequence (D4A7Q2 1-355): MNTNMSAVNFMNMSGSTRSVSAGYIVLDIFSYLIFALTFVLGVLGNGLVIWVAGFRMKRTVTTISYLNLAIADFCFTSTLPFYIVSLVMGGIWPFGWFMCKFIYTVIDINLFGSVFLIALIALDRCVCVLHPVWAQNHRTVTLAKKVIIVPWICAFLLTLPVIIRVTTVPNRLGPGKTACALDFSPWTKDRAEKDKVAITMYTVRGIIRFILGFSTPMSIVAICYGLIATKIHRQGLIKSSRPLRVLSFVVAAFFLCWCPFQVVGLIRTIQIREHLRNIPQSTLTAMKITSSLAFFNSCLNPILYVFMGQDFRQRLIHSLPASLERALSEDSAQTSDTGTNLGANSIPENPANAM
Method: as §1, §2
Competition binding assays for N-terminal capping groups and Re-libraries were conducted with 6 nM ^3H-fMLP in addition to the unlabelled competing analogue added at 1.0 uM and 10 uM to each well. […] Total binding in the competition assays was assessed in the presence of 1.0×10^6 PMNs per sample while non-specific binding was determined in the absence of cells. Each condition was performed in quadruplicate. Total activity added to each sample was determined from cpms obtained from a sample containing 6 nM ^3H-fMLF. Data was expressed as specific binding in fmols and converted to percent of total ^3H-fMLF binding (% control).
After a 1 hour incubation period at 4° C., the samples were harvested with the Tomtec Mach III Cell Harvester by vacuum aspiration onto 1.5 um pore size Skatron glass-fibre filter mats pre-treated with 0.1% polyethylenimine (w/v) for approximately 24 hours. Sample wells received three consecutive 12 second washes with 0.9% saline solution and 5 mL of liquid scintillation fluid was added to collected filters. Filters were counted for 2 minutes in the Beckman β-counter following exposure to scintillation fluid for 15 hours. Data was expressed in terms of specific binding in fmols converted to percent of total ^3H-fMLF binding (% control).
as §4

human neutrophils = assay: Myeloperoxidase release from human neutrophils; format: cell-based; settings: result in words; for inhibition of MPO release in fMLF-stimulated human neutrophils (FIG. 4): 10 uM compound, fMLF 10^−8 M and 10^−6 M, p<0.05; for stimulation of MPO release by the compound itself in human neutrophils: up to 10 uM compound, low fMLF (10^−14M, 10^−12M)
Method: Approximately 30 mL of venous blood was collected from healthy volunteers with 100 units of heparin per mL of blood. Samples were then mixed with 8 mL of 6% dextran solution and incubated at 37° C. for 1 hour for RBC sedimentation. Leukocyte-rich plasma was collected and centrifuged at 1500 rpm for 5 minutes. Cell pellets were resuspended in 35 mL of saline and 10 mL of lymphocyte separation medium was layered over prior to additional centrifugation at 1200 rpm for 30 minutes. Sedimented cells were washed once with 35 mL of saline and RBCs were lysed by resuspension in 1.8 mL of sterile H2O for 15 seconds. Isotonicity was restored with the addition of 0.2 mL of 10×HBSS− followed by the addition of 35 mL of saline. Centrifugation at 1500 rpm for 5 minutes was then performed. Following final washing of the PMN pellet with 35 mL of saline, cell viability was determined via trypan blue exclusion and cell number was determined.
as §3

Question: “Capping Group 13: Adamantylcarbonyl N-terminal capping group attached to peptide NleLFK (Adamantane1carbonyl-[Nle]LFK)” was tested. Which “% Control (1 uM)” value (elicited rat PMNs [1]) did it give?
Answer: 70.5 ± 14.9 % control

Question: And the “% Control (10 uM)” value (elicited rat PMNs [1])?
Answer: 71.7 ± 11.2 % control

Question: What about the “antagonist function on MPO release in fMLF stimulated rat PMNs” value (“antagonist function on MPO release” below) (elicited rat PMNs [2]) of the same molecule?
Answer: exhibited antagonist function in fMLF stimulated cells

Question: And the “% Control MPO release (1 uM capping group + 0.1 uM fMLF)” value (elicited rat PMNs [2])?
Answer: 131.6 ± 30.9 % control

Question: What about the “% Control MPO Release (10 uM capping group + 0.1 uM fMLF)” value (elicited rat PMNs [2]) of the same molecule?
Answer: 128.6 ± 40.9 % control

Question: And the “competition binding of N-terminal modified NleLFK peptides (FIG. 8)” value (from here on “competition binding”) (Rat FPR; 6 nM 3H-fMLF, result in words)?
Answer: did not significantly decrease the amount of ^3H-fMLF binding

Question: How did the “inhibition of MPO release in fMLF-stimulated human neutrophils (FIG. 4)” value (human neutrophils) turn out when “ReO-CyclopropylCONH-nleu-leu-phe-trp-glu-lys(dimethylgly-t-butylgly-cys-gly)-gly-OH (Cyclopropanecarbonyl-[Nle]LFWEKG-OH; not fully specified (residue 6); printed as ReO-CyclopropylCONH-nleu-leu-phe-trp-glu-lys(dimethylgly-t-butylgly-cys-gly)-gly-OH; also: ReO chelate on Lys side chain) [ReORP553 17-01]” was run?
Answer: significantly inhibited the release of MPO

Question: And the “stimulation of MPO release by the compound itself in human neutrophils” value (human neutrophils)?
Answer: did not stimulate MPO release

Question: What about the “binding affinity, fold greater than N-t-BocMLF” value (Rat FPR; from rat FPR IC50 values) of the same molecule?
Answer: approximately 12 fold

Question: For “Capping Group 18: N,N-diphenylcarbamoyl N-terminal capping group attached to peptide NleLFK ({N,N‑diphenylcarbamoyl}-[Nle]LFK)”, which “% Control (1 uM)” value (elicited rat PMNs [1]) is on record?
Answer: 142.7 ± 8.8 % control

Question: And the “% Control (10 uM)” value (elicited rat PMNs [1])?
Answer: 125.2 ± 1.5 % control

Question: And the “% Control MPO release (1 uM capping group + 0.1 uM fMLF)” value (elicited rat PMNs [2])?
Answer: 321.6 ± 8.6 % control

Question: And the “% Control MPO Release (10 uM capping group + 0.1 uM fMLF)” value (elicited rat PMNs [2])?
Answer: 185.9 ± 15.7 % control

Question: And the “inhibition of 3H-fMLF binding at 10 uM compared with iso-BocMLFK (FIG. 8)” value (Rat FPR; peptide 10 uM, 6 nM 3H-fMLF, result in words)?
Answer: inhibited ^3H-fMLF binding to a degree comparable with known antagonist iso-BocMLFK

Question: And the “competition binding” value (Rat FPR; 6 nM 3H-fMLF, result in words)?
Answer: do not nullify binding affinity

Question: Which “inhibition of MPO release in fMLF-stimulated human neutrophils (FIG. 4)” value (human neutrophils) does the source give for `CSCC[C@H](NC(=O)OC(C)(C)C)C(=O)N[C@@H](CC(C)C)C(=O)N[C@@H](Cc1ccccc1)C(=O)O` [N-t-BocMLF, N-tert-butyloxycarbonylated-methionyl-leucyl-phenylalanine, reference compound] here?
Answer: inhibited MPO release from fMLF stimulated cells

Question: What about the “stimulation of MPO release by the compound itself in human neutrophils” value (human neutrophils) of the same molecule?
Answer: did not induce release

Question: And the IC50 (Rat FPR; elicited rat PMNs, 6 nM 3H-fMLF, 4° C. 1 hour, brackets = 95% confidence interval, read-out: Receptor Binding (IC50))?
Answer: 9.3 µM

Question: “N,N-diethylcarbamoyl-NleLFK ({N,N‑diethylcarbamoyl}-[Nle]LFK) [Capping Group 6]” was tested. Which “% Control (1 uM)” value (elicited rat PMNs [1]) did it give?
Answer: 113.8 ± 14.3 % control

Question: What about the “% Control (10 uM)” value (elicited rat PMNs [1]) of the same molecule?
Answer: 109.6 ± 3.3 % control

Question: And the “antagonist function on MPO release” value (elicited rat PMNs [2])?
Answer: inhibited MPO release

Question: What about the “% Control MPO release (1 uM capping group + 0.1 uM fMLF)” value (elicited rat PMNs [2]) of the same molecule?
Answer: 283.3 ± 25.1 % control

Question: And the “% Control MPO Release (10 uM capping group + 0.1 uM fMLF)” value (elicited rat PMNs [2])?
Answer: 249.9 ± 6.2 % control

Question: What about the “competition binding” value (Rat FPR; 6 nM 3H-fMLF, result in words, listed as 6) of the same molecule?
Answer: did not significantly decrease the amount of ^3H-fMLF binding

Question: And the “competition binding” value (Rat FPR; 6 nM 3H-fMLF, result in words, listed as N,N-diethylcarbamoyl-NleLFK)?
Answer: inhibit ^3H-fMLF binding

Question: Which “% Control (1 uM)” value (elicited rat PMNs [1]) does the source give for “Capping Group 16: Fluorenylmethylcarbonyl N-terminal capping group attached to peptide NleLFK ({Acetyl(9-fluorenyl)}-[Nle]LFK)” here?
Answer: 84.1 ± 27.6 % control

Question: What about the “% Control (10 uM)” value (elicited rat PMNs [1]) of the same molecule?
Answer: 59.9 ± 19.0 % control

Question: What about the “antagonist function on MPO release” value (elicited rat PMNs [2]) of the same molecule?
Answer: exhibited antagonist function in fMLF stimulated cells

Question: What about the “% Control MPO release (1 uM capping group + 0.1 uM fMLF)” value (elicited rat PMNs [2]) of the same molecule?
Answer: 161.7 ± 6.2 % control

Question: What about the “% Control MPO Release (10 uM capping group + 0.1 uM fMLF)” value (elicited rat PMNs [2]) of the same molecule?
Answer: 108.9 ± 28.5 % control

Question: And the “competition binding” value (Rat FPR; 6 nM 3H-fMLF, result in words)?
Answer: did not significantly decrease the amount of ^3H-fMLF binding
